According to patent US6300331A, “Naphthalimidobenzamide derivatives” (Taiho Pharmaceutical Co., Ltd., priority 1998, dated 2001):
Structures can show the parent of a compound that is named as a salt. Where two headings read alike, the source gives them in different places.

Columns and labels:
[1] = test system: region abundant in adenine and thymine; assay: interaction with DNA region abundant in adenine and thymine; type: binding
Text: (§1) The naphthalimidobenzamide derivatives (1) or salts thereof according to the present invention are compounds synthesized to have a high affinity with DNA and base sequence selectivity. As a result of various investigations, it has been confirmed that the compounds of the present invention each has a high affinity with DNA based on the results of various tests including a test using ethidium bromide displacement assay or the like. It has also been confirmed that they have stronger affinities with respective base sequence regions.

KB cells = assay: Cytotoxicity against KB cells (crystal violet dying method); type: cell-based; conditions: Homo sapiens, read-out: Cytotoxicity [IC50 (μM)]
Experimental: Test 1 Cytotoxicity against KB cells
The residue was re-suspended in an MEM medium containing 10% fetal bovine serum. Then, an equivalent amount of a 0.2% trypan blue solution was added to a portion of the cell suspension, followed by mixing. The number of living cells which had not been dyed with the trypan blue was counted by a hemocytometer and the suspension was diluted and adjusted with the above-described culture medium to give a cell concentration of 1×10^4 cells/ml. Each well of a 96-well plate was inoculated with a 100-μl portion of the resulting suspension, in other words, was inoculated to give a concentration of 1×10^3 cells/well.
To the cells cultured in a CO2 incubator for 24 hours after the inoculation was added 100 μl/well of a medicament solution, followed by culturing for 72 hours. To a control was added 100 μl of an MEM medium.
The cytotoxicity of the medicament was determined from a change in the number of the cells by using the crystal violet dying method.
After washing the plate with water, 100 μl/well of a 0.05% crystal violet solution dissolved in 20% methanol was added to dye the cells therewith for about 15 minutes. The plate was washed to remove the unbound crystal violet, followed by the addition of 100 μl/well of 0.05M NaH2 PO4 /ethanol (1:1 v/v), whereby the crystal violet bound to the cellular protein was extracted.

[2] = test system: region abundant in guanine and cytosine; assay: interaction with DNA region abundant in guanine and cytosine; type: binding
Text: as §1

[3] = test system: human skin cancer strains LOX; assay: antitumor test in nude mouse subcutaneously transplanted with human skin cancer strains LOX; type: in vivo
[4] = test system: human gastric cancer strains AZ521; assay: antitumor test in nude mouse subcutaneously transplanted with human gastric cancer strains AZ521; type: in vivo
[5] = test system: human pancreatic cancer strains PAN6; assay: antitumor test in nude mouse subcutaneously transplanted with human pancreatic cancer strains PAN6; type: in vivo
[6] = test system: human breast cancer strains MX1; assay: antitumor test in nude mouse subcutaneously transplanted with human breast cancer strains MX1; type: in vivo
[7] = KB cells, 72 hours, 50% proliferation inhibition

Row | SMILES | IC50 (KB cells; [7]) [µM] | also measured
1 | Cn1cc(NC(=O)c2cc(NC=O)cn2C)cc1C(=O)NCCNCCNC(=O)c1cc(C(=O)NCCNCCNC(=O)c2cc(NC(=O)c3cc(NC=O)cn3C)cn2C)cc(N2C(=O)c3cccc4cc([N+](=O)[O-])cc(c34)C2=O)c1 [Example 30, 1,3-bis[N-[2-[[2-[4-(4-formamido-1-methylpyrrole-2-carbonylamino)-1-methylpyrrole-2-carbonylamino]ethyl]amino]ethyl]carbamoyl]-5-(3-nitro-1,8-naphthalimido)benzene dihydrochloride] |  | interaction with a region abundant in adenine and thymine [1]: strong interaction
2 | O=C(NCCNCCN1C(=O)c2cccc3cc([N+](=O)[O-])cc(c23)C1=O)c1cc(C(=O)NCCNCCN2C(=O)c3cccc4cc([N+](=O)[O-])cc(c34)C2=O)cc(N2C(=O)c3cccc4cc([N+](=O)[O-])cc(c34)C2=O)c1 [Example 4, 1,3-bis[N-[2-[[2-(3-nitro-1,8-naphthalimido)ethyl]amino]ethyl]carbamoyl]-5-(3-nitro-1,8-naphthalimido)benzene dihydrochloride] | 0.048 | interaction with a region abundant in guanine and cytosine [2]: strong interaction
3 | O=C(NCCCNCCCN1C(=O)c2cccc3cc([N+](=O)[O-])cc(c23)C1=O)c1cc(C(=O)NCCCNCCCN2C(=O)c3cccc4cc([N+](=O)[O-])cc(c34)C2=O)cc(N2C(=O)c3cccc4cc([N+](=O)[O-])cc(c34)C2=O)c1 [Example 11, 1,3-bis[N-[3-[[3-(3-nitro-1,8-naphthalimido)propyl]amino]propyl]carbamoyl]-5-(3-nitro-1,8-naphthalimido)benzene dihydrochloride] | 0.14 | 
4 | O=C(NCCNCCN1C(=O)c2cccc3cc([N+](=O)[O-])cc(c23)C1=O)c1cc(C(=O)NCCNCCN2C(=O)c3cccc4cc([N+](=O)[O-])cc(c34)C2=O)cc(N2C(=O)c3cccc4cccc(c34)C2=O)c1 [Example 2, 1,3-bis[N-[2-[[2-(3-nitro-1,8-naphthalimido)ethyl]amino]ethyl]carbamoyl]-5(1,8-naphthalimido)benzene dimethanesulfonate] | 0.0061 | 
5 | CN1CCN(C(=O)c2cc(C(=O)NCCNCCN3C(=O)c4cccc5cc([N+](=O)[O-])cc(c45)C3=O)cc(N3C(=O)c4cccc5cc([N+](=O)[O-])cc(c45)C3=O)c2)CC1 [Example 49, 1-(4-methylpiperazino)carbonyl-3-(3-nitro-1,8-naphthalimido)-5-[N-[2-[[2-(3-nitro-1,8-naphthalimido)ethyl]amino]ethyl]carbamoyl]benzene hydrochloride] | 0.035 | 
6 | O=C(NCCNCCN1C(=O)c2cc3ccccc3cc2C1=O)c1cc(C(=O)NCCNCCN2C(=O)c3cc4ccccc4cc3C2=O)cc(N2C(=O)c3cccc4cc([N+](=O)[O-])cc(c34)C2=O)c1 [Example 7, 1,3-bis[N-[2-[[2-(2,3-naphthalimido)ethyl]amino]ethyl]carbamoyl]-5-(3-nitro-1,8-naphthalimido)benzene dihydrochloride] | 4.1 | 
7 | O=C(NCCNCCN1C(=O)c2cc3ccccc3cc2C1=O)c1cc(C(=O)NCCNCCN2C(=O)c3cccc4cc([N+](=O)[O-])cc(c34)C2=O)cc(N2C(=O)c3cccc4cc([N+](=O)[O-])cc(c34)C2=O)c1 [Example 17, 1-[N-[2-[[2-(2,3-naphthalimido)ethyl]amino]ethyl]carbamoyl]-3-(3-nitro-1,8-naphthalimido)-5-[N-[2-[[2-(3-nitro-1,8-naphthalimido)ethyl]amino]ethyl]carbamoyl]benzene dihydrochloride] | 0.28 | 
8 | CN(C)CCCNC(=O)c1cc(NC(=O)CCCNC(=O)c2cc(C(=O)NCCNCCN3C(=O)c4cccc5cc([N+](=O)[O-])cc(c45)C3=O)cc(N3C(=O)c4cccc5cc([N+](=O)[O-])cc(c45)C3=O)c2)cn1C [Example 34, 1-[N-[3-[N-[2-[N-(3-dimethylaminopropyl)carbamoyl]-1-methylpyrrol-4-yl]carbamoyl]propyl]carbamoyl]-3-(3-nitro-1,8-naphthalimido)-5-[N-[2-[[2-(3-nitro-1,8-naphthalimido)ethyl]amino]ethyl]carbamoyl]benzene dihydrochloride] | 4.7 | 
9 | O=C(NCCNCCN1C(=O)c2cccc3c(Cl)ccc(c23)C1=O)c1cc(C(=O)NCCNCCN2C(=O)c3cccc4c(Cl)ccc(c34)C2=O)cc(N2C(=O)c3cccc4cc([N+](=O)[O-])cc(c34)C2=O)c1 [Example 8, 1,3-bis[N-[2-[[2-(4-chloro-1,8-naphthalimido)ethyl]amino]ethyl]carbamoyl]-5-(3-nitro-1,8-naphthalimido)benzene dihydrochloride] | 0.05 | 
10 | O=C(NCCNCCN1C(=O)c2cccc3cccc(c23)C1=O)c1cc(C(=O)NCCNCCN2C(=O)c3cccc4cccc(c34)C2=O)cc(N2C(=O)c3cccc4cc([N+](=O)[O-])cc(c34)C2=O)c1 [Example 6, 1,3-bis[N-[2-[[2-(1,8-naphthalimido)ethyl]amino]ethyl]carbamoyl]-5-(3-nitro-1,8-naphthalimido)benzene and dihydrochloride thereof] | 0.064 | 
11 | CNC(=O)c1cc(C(=O)NCCNCCN2C(=O)c3cccc4cc([N+](=O)[O-])cc(c34)C2=O)cc(N2C(=O)c3cccc4cc([N+](=O)[O-])cc(c34)C2=O)c1 [Example 43, 1-methylcarbamoyl-3-(3-nitro-1,8-naphthalimido)-5-[N-[2-[[2-(3-nitro-1,8-naphthalimido)ethyl]amino]ethyl]carbamoyl]benzene hydrochloride] | 0.025 | 
12 | O=C(NCCNCCN1C(=O)c2cccc3cc([N+](=O)[O-])cc(c23)C1=O)c1cc(C(=O)NCCN2CCCC2)cc(N2C(=O)c3cccc4cc([N+](=O)[O-])cc(c34)C2=O)c1 [Example 45, 1-(3-nitro-1,8-naphthalimido)-3-[N-[2-[[2-(3-nitro-1,8-naphthalimido)ethyl]amino]ethyl]carbamoyl]-5-[N-(2-pyrrolidinoethyl)carbamoyl]benzene hydrochloride] | 0.066 | 
13 | O=C(NCCNCCN1C(=O)c2cccc3cc([N+](=O)[O-])cc(c23)C1=O)c1cc(C(=O)N2CCC(N3CCCCC3)CC2)cc(N2C(=O)c3cccc4cc([N+](=O)[O-])cc(c34)C2=O)c1 [Example 55, 1-(3-nitro-1,8-naphthalimido)-3-[N-[2-[[2-(3-nitro-1,8-naphthalimido)ethyl]amino]ethyl]carbamoyl]-5-(4-piperidinopiperidino)carbonylbenzene hydrochloride] | 0.11 | 
14 | O=C(NCCNCCN1C(=O)c2cccc3cc([N+](=O)[O-])cc(c23)C1=O)c1cc(C(=O)NCCN2CCCCC2)cc(N2C(=O)c3cccc4cc([N+](=O)[O-])cc(c34)C2=O)c1 [Example 46, 1-(3-nitro-1,8-naphthalimido)-3-[N-[2-[[2-(3-nitro-1,8-naphthalimido)ethyl]amino]ethyl]carbamoyl]-5-[N-(2-piperidinoethyl)carbamoyl]benzene hydrochloride] |  | inhibitory effects against tumor proliferation [3]: 96.2%; inhibitory effects against tumor proliferation [4]: 79.5%; inhibitory effects against tumor proliferation [5]: 59.8%; IC50 (KB cells; KB, 72 h): 0.053 µM; inhibitory effects against tumor proliferation [6]: 71.8%
15 | O=C(NCCNCCN1C(=O)c2cccc3cccc(c23)C1=O)c1cc(C(=O)NCCNCCN2C(=O)c3cccc4cccc(c34)C2=O)cc(N2C(=O)c3cccc4cccc(c34)C2=O)c1 [Example 1, 1,3-bis[N-[2-[[2-(1,8-naphthalimido)ethyl]amino]ethyl]carbamoyl]-5-(1,8-naphthalimido) benzene dimethanesulfonate] | 0.059 | 
